Results reported in patent US8742106B2 (Novartis AG, priority 2009, dated 2014).
pKd, pKi: −log10 of the molar value.

What was measured:
[1] = molecular target: T1, human orexin 2 receptors (Homo sapiens (Human), UniProt O43614); assay: Radioligand Binding Assay II ([3H]-SB649868 competition, cell membranes); settings: read-out: binding II hOx2R Kd
Outline: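 Competition binding used membranes from CHO or HEK cells expressing human orexin 2 receptor, incubated 1 h at room temperature with ~1 nM [3H]-SB649868 in 10 mM HEPES pH 7.5, 0.5% BSA, 5 mM MgCl2, 1 mM CaCl2, 0.05% tween. Nonspecific binding was defined with 10 μM almorexant, and bound activity was measured after filtration.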

[2] = molecular target: T1, human orexin 2 receptors; assay: Radioligand Binding Assay I ([125I]orexin A competition, cell membranes); settings: read-out: binding I hOx2R Kd
Method: (§1) Radioligand Binding Assay I
(§2) For crude cell membrane preparations, cells (CHO, Chinese hamster ovary or HEK, human embryonic kidney) expressing human orexin 1 or human orexin 2 receptors, were washed with HEPES (10 mM, pH 7.5), scraped off the culture plates with the same buffer, and centrifuged at 4° C. for 5 min at 2500×g. The cell pellet was either stored at −80° C. or used directly. Before the experiments, cell membranes were re-suspended in binding assay buffer (10 mM HEPES, 0.5% (w/v) bovine serum albumin, pH 7.5) by homogenisation with a Polytron homogeniser at 50 Hz for 20 s. Cell membranes were also used as made available by commercial providers.
(§3) In initial saturation experiments (to calculate Bmax), cell homogenates (150 μl) were incubated with 25-300 pM of the radioligand ([^125I]orexin A, 50 μl), 8 concentrations in triplicates in the presence or absence Orexin A (1 μM, 50 μl) to define non specific binding. Bound radioactivity was measured, and data were analysed with the program XLFIT or Graphpad Prism. Protein concentration was determined according to the Bradford/BioRad Protein Assay Kit.
(§4) In competition experiments, cell homogenates (150 μl) were incubated in assay buffer (10 mM HEPES, pH 7.5, 0.5% (w/v) bovine serum albumin, 5 mM MgCl2, 1 mM CaCl2, and tween 0.05%) for 1 h at room temperature with about 100 pM of the radioligand ([^125I]orexin A, 2100 Ci/mmole, 50 μl), and with various concentrations of compounds of the invention (50 μl) in triplicates; non-specific binding was determined in the presence of Orexin A (1 μM). Reactions were terminated by vacuum filtration, 3 washes of ice cold wash buffer (Tris-HCl pH 7.4/10 mM, with NaCl 154 mM).

[3] = molecular target: T2, human orexin 1 receptors (Homo sapiens (Human), UniProt O43613); assay: as above; settings: read-out: binding I hOx1R Kd
T2 sequence (O43613 whole entry): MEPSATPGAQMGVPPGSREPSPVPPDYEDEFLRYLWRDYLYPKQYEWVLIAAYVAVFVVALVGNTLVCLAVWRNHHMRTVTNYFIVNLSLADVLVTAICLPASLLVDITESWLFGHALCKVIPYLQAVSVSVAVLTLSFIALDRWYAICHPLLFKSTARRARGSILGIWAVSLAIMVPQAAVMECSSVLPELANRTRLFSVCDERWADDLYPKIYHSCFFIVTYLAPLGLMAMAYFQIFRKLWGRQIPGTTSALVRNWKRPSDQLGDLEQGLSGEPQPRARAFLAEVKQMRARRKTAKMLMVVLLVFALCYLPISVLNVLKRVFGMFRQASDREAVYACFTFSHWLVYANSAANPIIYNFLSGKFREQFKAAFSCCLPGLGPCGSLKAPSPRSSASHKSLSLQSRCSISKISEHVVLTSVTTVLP
Method: as §1, §2, §3, §4

[4] = molecular target: T1, human orexin 2 receptors; assay: Calcium Accumulation in Cells (FLIPR), antagonism of orexin A; format: cell-based; settings: antagonism of orexin A, Cheng-Prusoff corrected; read-out: FLIPR hOx2R Ki
Outline: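 Cells expressing human orexin 2 receptor, loaded with Fluo4-AM (2 μM) plus probenecid (0.1 mM) for 1 h, then washed. Antagonism read as inhibition of the orexin A calcium fluorescence signal (FLIPR).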

[5] = molecular target: T2, human orexin 1 receptors; assay: Radioligand Binding Assay II ([3H]-SB649868 competition, cell membranes); settings: read-out: binding II hOx1R Kd
Outline: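 Membranes from CHO or HEK cells expressing human orexin 1 or orexin 2 receptors incubated 1 h at room temperature with about 1 nM [3H]-SB649868 and compound (triplicates) in HEPES pH 7.5 buffer with BSA, MgCl2, CaCl2, tween. Nonspecific binding defined with 10 μM almorexant; filtration read-out, Kd reported.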

[6] = molecular target: T2, human orexin 1 receptors; assay: Calcium Accumulation in Cells (FLIPR), antagonism of orexin A; format: cell-based; settings: antagonism of orexin A, Cheng-Prusoff corrected; read-out: FLIPR hOx1R Ki

T1 sequence (O43614 whole entry): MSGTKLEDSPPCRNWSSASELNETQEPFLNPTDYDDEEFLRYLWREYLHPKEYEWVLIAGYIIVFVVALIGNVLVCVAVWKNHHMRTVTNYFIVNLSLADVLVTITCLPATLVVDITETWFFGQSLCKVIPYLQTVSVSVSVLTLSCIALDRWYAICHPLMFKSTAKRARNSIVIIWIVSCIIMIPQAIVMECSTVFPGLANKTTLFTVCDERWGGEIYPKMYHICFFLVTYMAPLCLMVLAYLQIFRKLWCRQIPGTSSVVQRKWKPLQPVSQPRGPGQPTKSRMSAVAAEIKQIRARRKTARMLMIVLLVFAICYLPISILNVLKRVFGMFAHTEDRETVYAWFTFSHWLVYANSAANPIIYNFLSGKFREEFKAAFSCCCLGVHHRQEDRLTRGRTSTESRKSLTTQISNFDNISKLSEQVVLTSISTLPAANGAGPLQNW

SMILES | melting point | pKd [1] | pKd [2] | pKd [3] | pKi [4] | pKd [5] | pKi [6]
Cc1n[nH]c(C)c1[C@H](C)NC(=O)COc1cc(C(F)(F)F)c2c(-c3ccccc3)nn(C)c2n1 [Example 1.6, (S)—N-(1-(3,5-dimethyl-1H-pyrazol-4-yl)ethyl)-2-(1-methyl-3-phenyl-4-(trifluoromethyl)-1H-pyrazolo[3,4-b]pyridin-6-yloxy)acetamide] | 145 to 147 °C | – | – | – | – | – | –
COc1ccc([C@H](C)NC(=O)COc2cc(C(F)(F)F)c3c(-c4ccccc4)nn(C)c3n2)cc1 [Example 1.4, (S)—N-(1-(4-methoxyphenyl)ethyl)-2-(1-methyl-3-phenyl-4-(trifluoromethyl)-1H-pyrazolo[3,4-b]pyridin-6-yloxy)acetamide] | 172 to 174 °C | 8.52 | 8.40 | 8.10 | 8.70 | 8.15 | 7.85
C[C@H](CNC(=O)COc1cc(C(F)(F)F)c2c(-c3ccccc3)nn(C)c2n1)c1ccccc1 [Example 1.5, (S)-2-(1-methyl-3-phenyl-4-(trifluoromethyl)-1H-pyrazolo[3,4-b]pyridin-6-yloxy)-N-(2-phenylpropyl)acetamide] | 91 to 93 °C | – | 7.12 | 5.94 | 7.44 | – | 6.06
Cn1nc(-c2ccccc2)c2c(C(F)(F)F)cc(OCC(=O)N[C@H]3CCc4ccccc43)nc21 [Example 1.3, (S)—N-(2,3-dihydro-1H-inden-1-yl)-2-(1-methyl-3-phenyl-4-(trifluoromethyl)-1H-pyrazolo[3,4-b]pyridin-6-yloxy)acetamide] | 203 to 205.2 °C | – | 6.89 | 6.46 | 7.16 | – | 6.68
C[C@H](NC(=O)COc1ccc2c(-c3ccccc3)nn(C)c2n1)c1ccccc1 [Example 2.1, (S)-2-(1-methyl-3-phenyl-1H-pyrazolo[3,4-b]pyridin-6-yloxy)-N-(1-phenylethyl)acetamide] | 55 to 56 °C | – | – | – | 6.06 | – | 6.31
C[C@H](NC(=O)COc1cc(C(F)(F)F)c2c(-c3cccc(F)c3)nn(C)c2n1)c1ccccc1 [Example 1.22, (S)-2-(3-(3-fluorophenyl)-1-methyl-4-(trifluoromethyl)-1H-pyrazolo[3,4-b]pyridin-6-yloxy)-N-(1-phenylethyl)acetamide] | – | – | 7.03 | 7.06 | 7.30 | – | 6.97
CC(NC(=O)COc1cc(C(F)(F)F)c2c(-c3ccccc3)nn(C)c2n1)c1ccccc1 (centres unmarked) [Example 1.18, 2-(1-methyl-3-phenyl-4-(trifluoromethyl)-1H-pyrazolo[3,4-b]pyridin-6-yloxy)-N-(1-phenylethyl)acetamide] | – | – | 7.20 | 7.44 | 7.59 | – | 7.32
